From US9079901B2, “Fused heterocyclic compounds as ion channel modulators” (Gilead Sciences, Inc., priority 2010, dated 2015)

These compounds were tested against wild-type human cardiac sodium channel, hNav1.5 (late sodium current) in HEK293 cells (Homo sapiens, UniProt Q14524) (assay: Late INa screening assay (automated whole-cell patch clamp, PatchXpress)). Details: HEK293, compound at 1 μM; late INa generated with 10 μM Tefluthrin (or 50 nM ATX II); HEK293 hNav1.5; read-out: Late INa 1 μM (percent block of late INa).
Chain of wild-type human cardiac sodium channel, hNav1.5 (late sodium current) in HEK293 cells (Q14524 whole entry): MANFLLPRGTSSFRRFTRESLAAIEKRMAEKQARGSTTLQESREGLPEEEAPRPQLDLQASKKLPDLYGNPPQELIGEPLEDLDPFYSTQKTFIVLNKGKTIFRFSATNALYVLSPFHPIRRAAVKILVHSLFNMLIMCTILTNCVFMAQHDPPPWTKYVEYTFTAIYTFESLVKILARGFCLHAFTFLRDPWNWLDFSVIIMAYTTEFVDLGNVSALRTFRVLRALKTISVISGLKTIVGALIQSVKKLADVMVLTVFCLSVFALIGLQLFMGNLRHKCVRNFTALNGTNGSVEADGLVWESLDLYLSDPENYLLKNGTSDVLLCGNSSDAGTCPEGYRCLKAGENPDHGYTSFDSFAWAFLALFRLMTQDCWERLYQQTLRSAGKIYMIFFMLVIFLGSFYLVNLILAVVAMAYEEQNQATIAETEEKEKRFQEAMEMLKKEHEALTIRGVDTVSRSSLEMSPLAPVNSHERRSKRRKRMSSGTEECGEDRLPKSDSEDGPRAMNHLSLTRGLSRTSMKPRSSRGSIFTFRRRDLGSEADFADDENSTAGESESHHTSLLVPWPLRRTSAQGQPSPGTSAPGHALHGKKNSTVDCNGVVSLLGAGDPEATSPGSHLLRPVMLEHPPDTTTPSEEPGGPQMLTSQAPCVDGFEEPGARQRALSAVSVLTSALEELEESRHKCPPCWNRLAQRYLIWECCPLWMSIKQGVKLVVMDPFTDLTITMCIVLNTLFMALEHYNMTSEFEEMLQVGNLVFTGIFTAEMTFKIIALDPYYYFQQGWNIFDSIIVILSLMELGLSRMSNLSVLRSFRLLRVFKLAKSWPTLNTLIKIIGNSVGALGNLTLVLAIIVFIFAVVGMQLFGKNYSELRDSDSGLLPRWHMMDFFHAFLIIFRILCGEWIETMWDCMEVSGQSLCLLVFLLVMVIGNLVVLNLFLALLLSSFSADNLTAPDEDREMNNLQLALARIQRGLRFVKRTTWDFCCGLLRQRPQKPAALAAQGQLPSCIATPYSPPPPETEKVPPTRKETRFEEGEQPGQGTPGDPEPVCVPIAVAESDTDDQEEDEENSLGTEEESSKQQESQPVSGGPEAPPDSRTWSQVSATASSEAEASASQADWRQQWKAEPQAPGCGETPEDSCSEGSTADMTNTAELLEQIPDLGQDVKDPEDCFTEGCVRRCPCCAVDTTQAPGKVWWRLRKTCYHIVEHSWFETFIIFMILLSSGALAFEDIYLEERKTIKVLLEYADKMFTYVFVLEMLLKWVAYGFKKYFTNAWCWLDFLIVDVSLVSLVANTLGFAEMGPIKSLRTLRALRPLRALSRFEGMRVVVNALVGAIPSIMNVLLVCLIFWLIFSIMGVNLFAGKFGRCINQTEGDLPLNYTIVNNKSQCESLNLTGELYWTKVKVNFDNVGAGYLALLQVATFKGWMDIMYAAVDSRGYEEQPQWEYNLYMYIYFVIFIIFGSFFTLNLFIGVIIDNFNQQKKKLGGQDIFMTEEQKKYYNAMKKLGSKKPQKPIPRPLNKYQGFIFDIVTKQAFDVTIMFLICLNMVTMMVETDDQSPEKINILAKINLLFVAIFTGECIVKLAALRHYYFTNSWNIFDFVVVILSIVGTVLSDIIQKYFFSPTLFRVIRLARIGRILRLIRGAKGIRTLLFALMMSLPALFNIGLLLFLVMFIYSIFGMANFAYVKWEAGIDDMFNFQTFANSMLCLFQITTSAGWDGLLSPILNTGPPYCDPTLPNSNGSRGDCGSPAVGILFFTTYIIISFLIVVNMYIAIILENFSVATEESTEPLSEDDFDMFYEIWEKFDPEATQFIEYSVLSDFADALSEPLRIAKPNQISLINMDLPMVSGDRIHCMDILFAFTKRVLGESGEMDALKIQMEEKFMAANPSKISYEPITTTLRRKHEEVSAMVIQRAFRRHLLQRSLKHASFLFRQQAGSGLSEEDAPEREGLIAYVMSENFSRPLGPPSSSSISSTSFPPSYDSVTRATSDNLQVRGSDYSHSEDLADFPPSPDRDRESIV
Format: cell-based
Summary of the method: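 Percent block was derived from mean current 225–250 ms into a 250 ms depolarisation to −20 mV (holding −120 mV, every 10 s), normalised to the current left in Na-free solution. Whole-cell recordings came from HEK293 cells stably expressing α-subunit-only hNav1.5, at 24–27 °C. Late current was enhanced with 10 μM tefluthrin or 50 nM ATX II, then compound (typically 10 μM) was added three times over 7–8 min.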

| Compound | inhibition at 1 µM [%] |
| --- | --- |
| O=c1n(Cc2nc(C3CC3)co2)nc2ccc(-c3ccc(C(F)(F)F)cc3)cn12 [compound 194, 2-((4-cyclopropyloxazol-2-yl)methyl)-6-(4-(trifluoromethyl)phenyl)-[1,2,4]triazolo[4,3-a]pyridin-3(2H)-one] | 21.6 |
| Cc1cnc(Cn2nc3ccc(-c4ccc(Cl)cc4)cn3c2=O)o1 [compound 195, 6-(4-chlorophenyl)-2-((5-methyloxazol-2-yl)methyl)-[1,2,4]triazolo[4,3-a]pyridin-3(2H)-one] | 31.2 |
| Cc1cc(-c2ccc(OC(F)(F)F)cc2)cn2c(=O)[nH]nc12 [compound 196, 8-methyl-6-(4-(trifluoromethoxy)phenyl)-[1,2,4]triazolo[4,3-a]pyridin-3(2H)-one] | 38.3 |
| Cc1ncc(Cn2nc3ccc(-c4ccc(C(F)(F)F)cc4)cn3c2=O)o1 [compound 197, 2-((2-methyloxazol-5-yl)methyl)-6-(4-(trifluoromethyl)phenyl)-[1,2,4]triazolo[4,3-a]pyridin-3(2H)-one] | 19.7 |
| COc1cc(Cl)c(Cl)cc1OCC(O)Cn1nc2ccc(-c3ccc(C(F)(F)F)cc3)cn2c1=O (centres unmarked) [compound 198, 2-(3-(4,5-dichloro-2-methoxyphenoxy)-2-hydroxypropyl)-6-(4-(trifluoromethyl)phenyl)-[1,2,4]triazolo[4,3-a]pyridin-3(2H)-one] | 14.8 |
| O=c1n(Cc2ncc(C3CC3)o2)nc2ccc(-c3ccc(OC(F)(F)F)cc3)cn12 [compound 199, 2-((5-cyclopropyloxazol-2-yl)methyl)-6-(4-(trifluoromethoxy)phenyl)-[1,2,4]triazolo[4,3-a]pyridin-3(2H)-one] | 22.5 |
| O=c1[nH]nc2ccc(-c3ccc(OC(F)(F)F)cc3)cn12 [compound 200, 6-(4-(trifluoromethoxy)phenyl)-[1,2,4]triazolo[4,3-a]pyridin-3(2H)-one] | 26.5 |
| Cn1nc2ccc(-c3ccc(OC(F)(F)F)cc3)cn2c1=O [compound 201, 2-methyl-6-(4-(trifluoromethoxy)phenyl)-[1,2,4]triazolo[4,3-a]pyridin-3(2H)-one] | 38.7 |
